Results reported in patent publication US20240316028A1, “[…] FORMULATIONS AND THEIR USES” (priority 2023, published 2024).
Structures can show the parent of a compound that is named as a salt.

Tests used:
[1] = assay type: physicochemical
Experimental: All excipients used in the formulations were compatible with physostigmine before and after eBeam of 25 kGy. NaOH was used to adjust the cream pH and was added before mixing with physostigmine.

[2] = thermal and photolytic conditions

Structure (SMILES): CNC(=O)Oc1ccc2c(c1)[C@]1(C)CCN(C)[C@@H]1N2C [Physostigmine Salicylate]
- Total Impurities Pre eBeam ([1]; Table 13): 0.11
- Total Impurities Post eBeam T0 ([1]; Table 13, eBeam 25 kGy): 0.15

Structure (SMILES): CN1[C@@H]2CC[C@H]1C[C@@H](OC(=O)C(CO)c1ccccc1)C2 (stereo partly drawn) [atropine sulfate]
- thermal and photolytic degradation [2]: No significant variation
